Laboratory results as given in patent publication US20220281848A1, “PYRAZOLE-SUBSTITUTED PYRROLIDINONES AS HERBICIDES” (FMC Corporation, priority 2019, published 2022).

Tested on: plants
Assay: Test D pre-emergence, other plants of Tables D1 and D3
Format: in vivo
Settings: 20 DAA; for damage to plant (100=total damage to plant; 0=no damage to plant), BIDPI / damage to plant (100=total damage to plant; 0=no damage to plant), BRAPL / damage to plant (100=total damage to plant; 0=no damage to plant), CYPES / damage to plant (100=total damage to plant; 0=no damage to plant), EPHHL / damage to plant (100=total damage to plant; 0=no damage to plant), GLXMA / damage to plant (100=total damage to plant; 0=no damage to plant), IPOHE / damage to plant (100=total damage to plant; 0=no damage to plant), SORVU: preemergent; for CHEAL damage rating / GALAP damage rating / KCHSC damage rating / LOLPE damage rating / POAAN damage rating / STEME damage rating / VERPE damage rating: pre-emergence, 100=total damage, 0=no damage
Protocol: A formulation containing 50 g/L of the test chemical was prepared by dissolving the active ingredient in a mixture of organic solvents and emulsifier, details of which are provided in the table. This formulation was then mixed with a small, variable amount of acetone to aid dissolution, before addition of a 0.2% v/v aqueous solution of an adjuvant, as the aqueous diluent, to form an aqueous spray solution which contains a predetermined concentration of the active ingredient.
This aqueous spray solution was then sprayed onto plants including maize and wheat that had been seed treated with a herbicide safener, after one day's cultivation (for pre-emergence) or after about 12 days' cultivation (for post-emergence). The plants were grown from seeds sown in standard soil, placed in a glasshouse under controlled conditions (at 24/18° C. or 20/16° C., day/night; 16 h light; 65% humidity). After spray application the plants were then grown in a glasshouse under the same conditions and watered twice daily. After 15 d for post-emergence and 20 DAA for pre-emergence the test was evaluated (100=total damage to plant; 0=no damage to plant).

For CN1CC(c2cc(C(F)(F)F)n(C)n2)C(C(=O)Nc2cccc(F)n2)C1=O (racemic) [Compound 24], the “damage to plant (100=total damage to plant; 0=no damage to plant), BIDPI” value (rate 15) was 0, the “damage to plant (100=total damage to plant; 0=no damage to plant), BIDPI” value (rate 30) was 0 and the “damage to plant (100=total damage to plant; 0=no damage to plant), BIDPI” value (rate 60) was 0. For the same molecule, the “damage to plant (100=total damage to plant; 0=no damage to plant), BIDPI” value (rate 130) was 0, the “damage to plant (100=total damage to plant; 0=no damage to plant), BIDPI” value (rate 250) was 0 and the “damage to plant (100=total damage to plant; 0=no damage to plant), BIDPI” value (rate 500) was 0. The “damage to plant (100=total damage to plant; 0=no damage to plant), BRAPL” value (rate 15) was 0, the “damage to plant (100=total damage to plant; 0=no damage to plant), BRAPL” value (rate 30) was 20 and the “damage to plant (100=total damage to plant; 0=no damage to plant), BRAPL” value (rate 60) was 30. For the same molecule, the “damage to plant (100=total damage to plant; 0=no damage to plant), BRAPL” value (rate 130) was 80, the “damage to plant (100=total damage to plant; 0=no damage to plant), BRAPL” value (rate 250) was 80 and the “damage to plant (100=total damage to plant; 0=no damage to plant), BRAPL” value (rate 500) was 90. For the same molecule, the CHEAL damage rating (Rates 15) was 0, the CHEAL damage rating (Rates 30) was 0 and the CHEAL damage rating (Rates 60) was 0. For the same molecule, the CHEAL damage rating (Rates 130) was 0, the CHEAL damage rating (Rates 250) was 40 and the CHEAL damage rating (Rates 500) was 50. For the same molecule, the “damage to plant (100=total damage to plant; 0=no damage to plant), CYPES” value (rate 15) was 0, the “damage to plant (100=total damage to plant; 0=no damage to plant), CYPES” value (rate 30) was 0 and the “damage to plant (100=total damage to plant; 0=no damage to plant), CYPES” value (rate 60) was 0. The “damage to plant (100=total damage to plant; 0=no damage to plant), CYPES” value (rate 130) was 0, the “damage to plant (100=total damage to plant; 0=no damage to plant), CYPES” value (rate 250) was 0 and the “damage to plant (100=total damage to plant; 0=no damage to plant), CYPES” value (rate 500) was 0. The “damage to plant (100=total damage to plant; 0=no damage to plant), EPHHL” value (rate 15) was 0, the “damage to plant (100=total damage to plant; 0=no damage to plant), EPHHL” value (rate 30) was 0 and the “damage to plant (100=total damage to plant; 0=no damage to plant), EPHHL” value (rate 60) was 0. For the same molecule, the “damage to plant (100=total damage to plant; 0=no damage to plant), EPHHL” value (rate 130) was 0, the “damage to plant (100=total damage to plant; 0=no damage to plant), EPHHL” value (rate 250) was 0 and the “damage to plant (100=total damage to plant; 0=no damage to plant), EPHHL” value (rate 500) was 10. The GALAP damage rating (Rates 15) was 0, the GALAP damage rating (Rates 30) was 0 and the GALAP damage rating (Rates 60) was 0. For the same molecule, the GALAP damage rating (Rates 130) was 0, the GALAP damage rating (Rates 250) was 0 and the GALAP damage rating (Rates 500) was 0. For the same molecule, the “damage to plant (100=total damage to plant; 0=no damage to plant), GLXMA” value (rate 15) was 0, the “damage to plant (100=total damage to plant; 0=no damage to plant), GLXMA” value (rate 30) was 0 and the “damage to plant (100=total damage to plant; 0=no damage to plant), GLXMA” value (rate 60) was 0. The “damage to plant (100=total damage to plant; 0=no damage to plant), GLXMA” value (rate 130) was 0, the “damage to plant (100=total damage to plant; 0=no damage to plant), GLXMA” value (rate 250) was 0 and the “damage to plant (100=total damage to plant; 0=no damage to plant), GLXMA” value (rate 500) was 0. The “damage to plant (100=total damage to plant; 0=no damage to plant), IPOHE” value (rate 15) was 0, the “damage to plant (100=total damage to plant; 0=no damage to plant), IPOHE” value (rate 30) was 0 and the “damage to plant (100=total damage to plant; 0=no damage to plant), IPOHE” value (rate 60) was 0. The “damage to plant (100=total damage to plant; 0=no damage to plant), IPOHE” value (rate 130) was 0, the “damage to plant (100=total damage to plant; 0=no damage to plant), IPOHE” value (rate 250) was 0 and the “damage to plant (100=total damage to plant; 0=no damage to plant), IPOHE” value (rate 500) was 0. For the same molecule, the KCHSC damage rating (Rates 15) was 0, the KCHSC damage rating (Rates 30) was 0 and the KCHSC damage rating (Rates 60) was 0. It also gave a KCHSC damage rating (Rates 130) of 0, a KCHSC damage rating (Rates 250) of 0 and a KCHSC damage rating (Rates 500) of 10. The LOLPE damage rating (Rates 15) was 0, the LOLPE damage rating (Rates 30) was 0 and the LOLPE damage rating (Rates 60) was 0. It also gave an LOLPE damage rating (Rates 130) of 0, an LOLPE damage rating (Rates 250) of 0 and an LOLPE damage rating (Rates 500) of 10. The POAAN damage rating (Rates 15) was 0, the POAAN damage rating (Rates 30) was 0 and the POAAN damage rating (Rates 60) was 0. The POAAN damage rating (Rates 130) was 0, the POAAN damage rating (Rates 250) was 20 and the POAAN damage rating (Rates 500) was 40. For the same molecule, the “damage to plant (100=total damage to plant; 0=no damage to plant), SORVU” value (rate 15) was 0, the “damage to plant (100=total damage to plant; 0=no damage to plant), SORVU” value (rate 30) was 0 and the “damage to plant (100=total damage to plant; 0=no damage to plant), SORVU” value (rate 60) was 0. For the same molecule, the “damage to plant (100=total damage to plant; 0=no damage to plant), SORVU” value (rate 130) was 0, the “damage to plant (100=total damage to plant; 0=no damage to plant), SORVU” value (rate 250) was 0 and the “damage to plant (100=total damage to plant; 0=no damage to plant), SORVU” value (rate 500) was 0. It also gave an STEME damage rating (Rates 15) of 0, an STEME damage rating (Rates 30) of 0 and an STEME damage rating (Rates 60) of 0. It also gave an STEME damage rating (Rates 130) of 0, an STEME damage rating (Rates 250) of 10 and an STEME damage rating (Rates 500) of 70. For the same molecule, the VERPE damage rating (Rates 15) was 0, the VERPE damage rating (Rates 30) was 0 and the VERPE damage rating (Rates 60) was 0. It also gave a VERPE damage rating (Rates 130) of 0, a VERPE damage rating (Rates 250) of 50 and a VERPE damage rating (Rates 500) of 60.
